Patent publication US20020103377A1, “Piperidinyloxy and pyrrolidinyloxy oxazolidinone antibacterials” (priority 1999, published 2002)
≈ marks a conversion by molar mass, not a printed value.

How the values were obtained:
[1] = tested on: E. faecium OC3312; assay: MIC by microdilution broth method (NCCLS), E. faecium OC3312; format: cell-based; settings: cation adjusted Mueller-Hinton broth, 35° C., 16-20 hours; for MIC: Enterococcus faecium, OC3312, microdilution broth, read-out: MIC (μg/mL) E. faecium OC3312
Description: (§1) Minimal inhibitory concentration (MIC) has been an indicator of in vitro antibacterial activity widely used in the art. The in vitro antimicrobial activity of the compounds was determined by the microdilution broth method following the test method from the National Committee for Laboratory Standards (NCCLS). This method is described in the NCCLS Document M7-A4, Vol. 17, No.2, “Methods for Dilution Antimicrobial Susceptibility Test for Bacteria that Grow Aerobically-Fourth Edition”, which is incorporated herein by reference.
(§2) In this method two-fold serial dilutions of drug in cation adjusted Mueller-Hinton broth are added to wells in microdilution trays. The test organisms are prepared by adjusting the turbidity of actively growing broth cultures so that the final concentration of test organism after it is added to the wells is approximately 5×10^4 CFU/well.
(§3) Following inoculation of the microdilution trays, the trays are incubated at 35° C. for 16-20 hours and then read. […] The amount of growth in the wells containing the test compound is compared with the amount of growth in the growth-control wells (no test compound) used in each tray. As set forth in Table 1, compounds of the present invention were tested against a variety of Gram positive and Gram negative pathogenic bacteria resulting in a range of activities, from 1 to ≧128 μg/mL depending on the organism tested.

[2] = tested on: MRSA OC 2878; assay: MIC by microdilution broth method (NCCLS), MRSA OC 2878; format: cell-based, Staphylococcus aureus; settings: cation adjusted Mueller-Hinton broth, 35° C., 16-20 hours; for MIC: Staphylococcus aureus, MRSA, read-out: MIC (μg/mL) MRSA OC 2878
Description: as §1, §2, §3

[3] = tested on: S. aureus; assay: MIC by microdilution broth method (NCCLS), S. aureus Broth; format: cell-based; settings: cation adjusted Mueller-Hinton broth, 35° C., 16-20 hours; for MIC: Staphylococcus aureus, read-out: MIC (μg/mL) S. aureus Broth
Description: as §1, §2, §3

Structure (SMILES)	MIC [1] [µg/mL]	MIC [2] [µg/mL]	MIC [3] [µg/mL]	MIC (μg/mL) E. faecium OC3312 ([1]; microdilution broth) [µg/mL]	MIC (μg/mL) MRSA OC 2878 [2] [µg/mL]	MIC (μg/mL) S. aureus Broth [3] [µg/mL]
CC(=O)NC[C@H]1CN(c2ccc(OC3CCN(C(=O)c4ccncc4)CC3)c(F)c2)C(=O)O1 [Compound 21, (S)-N-[[3-[3-Fluoro-4-{N-(4-pyridoyl)piperidinyl-4-oxy}phenyl]-2-oxo-5-oxazolidinyl]methyl]acetamide]	64 (≈ 140 µM)	32 (≈ 70.1 µM)	32 (≈ 70.1 µM)	–	–	–
CC(=O)NC[C@H]1CN(c2ccc(OC3CCN(C(=O)CNC(=O)OCc4ccccc4)CC3)c(F)c2)C(=O)O1 [Compound 15]	8 (≈ 14.7 µM)	8 (≈ 14.7 µM)	8 (≈ 14.7 µM)	–	–	–
CC(=O)NC[C@H]1CN(c2ccc(OC3CCN(C(C)=O)CC3)cc2)C(=O)O1 [Compound 32, (S)-N-[[3-[4-{N-(Acetyl)piperidinyl-4-oxy}phenyl]-2-oxo-5-oxazolidinyl]methyl]acetamide]	32 (≈ 85.2 µM)	8 (≈ 21.3 µM)	16 (≈ 42.6 µM)	–	–	–
CC(=O)OCC(=O)N1CC(Oc2ccc(N3C[C@H](CN(C(C)=O)C(=O)COC(C)=O)OC3=O)cc2F)C1 [Compound 60, (S)-N-[[3-[3-Fluoro-4-{N-(acetoxyacetyl)azetidinyl-3-oxy}phenyl]-2-oxo-5-oxazolidinyl]methyl]-N-[α-acetoxyacetyl]acetamide]	> 128	16 (≈ 30.6 µM)	8 (≈ 15.3 µM)	–	–	–
CC(=O)NC[C@H]1CN(c2ccc(OC3CCN(C(C)=O)CC3)nc2)C(=O)O1 [Compound 43, (5S)-3-[6-{N-(Acetyl)piperidinyl-4-oxy}-pyridin-3-yl]-5-methylacetamide-oxazolidin-2-one]	> 128	128 (≈ 340 µM)	128 (≈ 340 µM)	–	–	–
CC(=O)NC[C@H]1CN(c2ccc(OC3CN(S(C)(=O)=O)C3)c(F)c2)C(=O)O1 [Compound 57, (S)-N-[[3-[3-Fluoro-4-{N-(methanesulfonyl)azetidinyl-3-oxy}phenyl]-2-oxo-5-oxazolidinyl]methyl]acetamide]	16 (≈ 39.9 µM)	16 (≈ 39.9 µM)	16 (≈ 39.9 µM)	–	–	–
COc1ccc(C(=O)N2CCC(Oc3ccc(N4C[C@H](CNC(C)=O)OC4=O)cc3F)CC2)cc1 [Compound 13, (S)-N-[[3-[3-Fluoro-4-{N-(4-methoxybenzoyl)piperidinyl-4-oxy}phenyl]-2-oxo-5-oxazolidinyl]methyl]acetamide]	16 (≈ 33 µM)	8 (≈ 16.5 µM)	8 (≈ 16.5 µM)	–	–	–
CC(=O)NC[C@H]1CN(c2ccc(OC3CCN(C(=O)CO)CC3)cc2)C(=O)O1 [Compound 31, (S)-N-[[3-[4-{N-(α-Hydroxyacetyl)piperidinyl-4-oxy}phenyl]-2-oxo-5-oxazolidinyl]methyl]acetamide]	32 (≈ 81.8 µM)	16 (≈ 40.9 µM)	16 (≈ 40.9 µM)	–	–	–
CC(=O)NC[C@H]1CN(c2ccc(OC3CCN(C(=O)CN4CCOCC4)CC3)c(F)c2)C(=O)O1 [Compound 56]	32 (≈ 66.9 µM)	32 (≈ 66.9 µM)	32 (≈ 66.9 µM)	–	–	–
CC(=O)NC[C@H]1CN(c2ccc(OC3CCN(C(=O)COCc4ccccc4)CC3)nc2)C(=O)O1 [Compound 42, (5S)-3-[6-{N-(Benzyloxyacetyl)piperidinyl-4-oxy}-pyridin-3-yl]-5-methylacetamide-oxazolidin-2-one]	> 128	32 (≈ 66.3 µM)	32 (≈ 66.3 µM)	–	–	–
COCC(=O)N1CCC(Oc2ccc(N3C[C@H](CNC(C)=O)OC3=O)cc2F)CC1 [Compound 5, (S)-N-[[3-[3-Fluoro-4-{N-(methoxyacetyl)piperidinyl-4-oxy}phenyl]-2-oxo-5-oxazolidinyl]methyl]acetamide]	16 (≈ 37.8 µM)	8 (≈ 18.9 µM)	8 (≈ 18.9 µM)	–	–	–
COc1cccc(C(=O)N2CCC(Oc3ccc(N4C[C@H](CNC(C)=O)OC4=O)cn3)CC2)c1 [Compound 48, (5S)-3-[6-{N-(3-Methoxybenzoyl)piperidinyl-4-oxy}-pyridin-3-yl]-5-methylacetamide-oxazolidin-2-one]	> 128	32 (≈ 68.3 µM)	64 (≈ 137 µM)	–	–	–
CC(=O)NC[C@H]1CN(c2ccc(OC3CCN(C(=O)COCc4ccccc4)CC3)c(F)c2)C(=O)O1 [Compound 3, (S)-N-[[3-[3-Fluoro-4-{N-(benzyloxyacetyl)piperidinyl-4-oxy}phenyl]-2-oxo-5-oxazolidinyl]methyl]acetamide]	–	–	–	4 (≈ 8.01 µM)	2 (≈ 4 µM)	4 (≈ 8.01 µM)
CC(=O)NC[C@H]1CN(c2ccc(OC3CCN(C(=O)COCc4cccnc4)CC3)c(F)c2)C(=O)O1 [Compound 55]	8 (≈ 16 µM)	16 (≈ 32 µM)	16 (≈ 32 µM)	–	–	–
CC(=O)NC[C@H]1CN(c2ccc(OC3CCCN(C(C)=O)C3)c(F)c2)C(=O)O1 (stereo partly drawn) [Compound 37, (S)-N-[[3-[3-Fluoro-4-{N-(acetyl)piperidinyl-3-oxy}phenyl]-2-oxo-5-oxazolidinyl]methyl]acetamide]	16 (≈ 40.7 µM)	8 (≈ 20.3 µM)	8 (≈ 20.3 µM)	–	–	–
CC(=O)NC[C@H]1CN(c2ccc(OC3CCN(C(=O)COCc4ccncc4)CC3)c(F)c2)C(=O)O1 [Compound 54]	8 (≈ 16 µM)	8 (≈ 16 µM)	8 (≈ 16 µM)	–	–	–
CC(=O)NC[C@H]1CN(c2ccc(OC3CCN(C(C)=O)CC3)c(F)c2)C(=O)O1 [Compound 7, (S)-N-[[3-[3-Fluoro-4-{N-(acetyl)piperidinyl-4-oxy}phenyl]-2-oxo-5-oxazolidinyl]methyl]acetamide]	16 (≈ 40.7 µM)	8 (≈ 20.3 µM)	8 (≈ 20.3 µM)	–	–	–
CC(=O)NC[C@H]1CN(c2ccc(OC3CCCN(C(=O)COCc4ccccc4)C3)c(F)c2)C(=O)O1 (stereo partly drawn) [Compound 35, (S)-N-[[3-[3-Fluoro-4-{N-(benzyloxyacetyl)piperidinyl-3-oxy}phenyl]-2-oxo-5-oxazolidinyl]methyl]acetamide]	64 (≈ 128 µM)	32 (≈ 64.1 µM)	32 (≈ 64.1 µM)	–	–	–
CC(=O)NC[C@H]1CN(c2ccc(OC3CCCN(C(=O)CO)C3)c(F)c2)C(=O)O1 (stereo partly drawn) [Compound 36, (S)-N-[[3-[3-Fluoro-4-{N-(α-hydroxyacetyl)piperidinyl-3-oxy}phenyl]-2-oxo-5-oxazolidinyl]methyl]acetamide]	16 (≈ 39.1 µM)	8 (≈ 19.5 µM)	8 (≈ 19.5 µM)	–	–	–
CC(=O)NC[C@H]1CN(c2ccc(OC3CCN(S(C)(=O)=O)CC3)cc2)C(=O)O1 [Compound 33, (S)-N-[[3-[4-{N-(Methanesulfonyl)piperidinyl-4-oxy}phenyl]-2-oxo-5-oxazolidinyl]methyl]acetamide]	32 (≈ 77.8 µM)	16 (≈ 38.9 µM)	16 (≈ 38.9 µM)	–	–	–
COC(=O)N1CCC(Oc2ccc(N3C[C@H](CNC(C)=O)OC3=O)cc2F)CC1 [Compound 8, (S)-N-[[3-[3-fluoro-4-{N-(methoxycarbonyl)piperidinyl-4-oxy}phenyl]-2-oxo-5-oxazolidinyl]methyl]acetamide]	8 (≈ 19.5 µM)	4 (≈ 9.77 µM)	8 (≈ 19.5 µM)	–	–	–
CC(=O)NC[C@H]1CN(c2ccc(OC3CCN(C(=O)c4ccno4)CC3)c(F)c2)C(=O)O1 [Compound 52, (S)-N-[[3-[3-Fluoro-4-{N-(5-isoxazolylcarbonyl)piperdinyl-4-oxy}phenyl]-2-oxo-5-oxazolidinyl]methyl]acetamide]	4 (≈ 8.96 µM)	8 (≈ 17.9 µM)	8 (≈ 17.9 µM)	–	–	–
CC(=O)NC[C@H]1CN(c2ccc(OC3CCN(C(=O)N(C)C)CC3)nc2)C(=O)O1 [Compound 49, (5S)-3-[6-{N-(Dimethylcarbamoyl)piperidinyl-4-oxy}-pyridin-3-yl]-5-methylacetamide-oxazolidin-2-one]	> 128	128 (≈ 316 µM)	> 64	–	–	–
CC(=O)NC[C@H]1CN(c2ccc(OC3CCN(C(=O)c4cccc(F)c4)CC3)nc2)C(=O)O1 [Compound 47, (5S)-3-[6-{N-(3-Fluorobenzoyl)piperidinyl-4-oxy}-pyridin-3-yl]-5-methylacetamide-oxazolidin-2-one]	> 128	64 (≈ 140 µM)	64 (≈ 140 µM)	–	–	–
CC(=O)NC[C@H]1CN(c2ccc(OC3CCN(C(=O)C(NC(=O)OCc4ccccc4)C(C)C)CC3)nc2)C(=O)O1 (stereo partly drawn) [Compound 50]	> 64	64 (≈ 113 µM)	> 64	–	–	–
CC(=O)NC[C@H]1CN(c2ccc(OC3CCN(C(=O)CO)CC3)c(F)c2)C(=O)O1 [Compound 4, (S)-N-[[3-[3-Fluoro-4-{N-(α-hydroxyacetyl)piperidinyl-4-oxy}phenyl]-2-oxo-5-oxazolidinyl]methyl]acetamide]	8 (≈ 19.5 µM)	4 (≈ 9.77 µM)	4 (≈ 9.77 µM)	–	–	–
CC(=O)NC[C@H]1CN(c2ccc(OC3CCN(C(=O)c4ccc(C#N)cc4)CC3)nc2)C(=O)O1 [Compound 45, (5S)-3-[6-{N-(4-Cyanobenzoyl)piperidinyl-4-oxy}-pyridin-3-yl]-5-methylacetamide-oxazolidin-2-one]	128 (≈ 276 µM)	64 (≈ 138 µM)	64 (≈ 138 µM)	–	–	–
CC(=O)NC[C@H]1CN(c2ccc(OC3CCN(C(=O)CCc4ccccc4)CC3)c(F)c2)C(=O)O1 [Compound 28, (S)-N-[[3-[3-Fluoro-4-{N-(3-phenyl-propionyl)piperidinyl-4-oxy}phenyl]-2-oxo-5-oxazolidinyl]methyl]acetamide]	16 (≈ 33.1 µM)	8 (≈ 16.5 µM)	16 (≈ 33.1 µM)	–	–	–
